Source: patent US8227464B2, “Substituted oxazolidinone derivatives” (Concert Pharmaceuticals, Inc., priority 2007, dated 2012)
Where two headings read alike, the source gives them in different places. Each block holds one molecule with its values, some of them ahead of it.

What was measured:
[1] = Pharmacokinetics in male Sprague Dawley rats following oral co-dosing; assay type: in vivo
Experimental: Separate solutions of rivaroxaban and Compound 101 were prepared using 20% ethanol, 60% PEG400, 20% dimethyl isosorbide to provide a concentration of 10 mg/mL. The concentration of each solution was confirmed by HPLC prior to further use. A combination dose of rivaroxaban and Compound 101 was prepared by mixing the two solutions in a 1.09:1 ratio to yield a final concentration of 5.45 mg/mL of rivaroxaban and 5 mg/mL for Compound 101.
Two male Sprague Dawley rats were dosed by oral gavage with the combination dose containing rivaroxaban (5.45 mg/kg) and compound 101 (5 mg/kg). Blood samples (approximately 0.25 mL) were collected retro-orbitally following oral administration at 0 minutes (min) (pre-dose), 5 min, 15 min, 30 min, 1 hr, 1.5 hr, 2 hr, 4 hr, 6 hr, 8 hr, 10 hr and 24 hr post-dose. Blood samples were stored on ice and centrifuged within 15 minutes of collection to harvest plasma. The plasma was decanted immediately and frozen at −20° C. until analysis.
Analyses of plasma samples were performed using a high performance liquid chromatography/mass spectrometry (HPLC/MS/MS) method. The LC system comprised an Agilent (Agilent Technologies Inc. USA) liquid chromatograph equipped with an isocratic pump (1100 series), an autosampler (1100 series) and a degasser (1100 series). Mass spectrometric analysis was performed using an API3000 (triple-quadrupole) instrument from AB Inc (Canada) with an ESI interface. The data acquisition and control system were created using Analyst 1.4 software from ABI Inc. Data for rivaroxaban was corrected by multiplying by a factor of 0.91 to compensate for the 9% increased amount administered as compared to Compound 101.

[2] = major in vivo metabolites of rivaroxaban; Weinz et al. 2004; cited from earlier work
[3] = use of rivaroxaban; Kubitza et al. 2005; cited from earlier work
[4] = male Sprague Dawley rats, oral gavage co-dose: rivaroxaban 5.45 mg/kg (data multiplied by 0.91) and Compound 101 5 mg/kg, plasma

AUC∞ [1, 4]: 3424.33 ng·h/mL
Cmax [1, 4]: 962 ng/mL
increase in AUC as compared to rivaroxaban ([1]; rats, oral co-dosing): greater than 16%
increase in Cmax as compared to rivaroxaban ([1]; rats, oral co-dosing): greater than 14%
SMILES: [2H]C1([2H])OC([2H])([2H])C([2H])([2H])N(c2ccc(N3C[C@H](CNC(=O)c4ccc(Cl)s4)OC3=O)cc2)C1=O [Compound 101, (S)-5-chloro-N-((2-oxo-3-(4-(3-oxo-2,2,5,5,6,6-d6-morpholino)phenyl)oxazolidin-5-yl)methyl)thiophene-2-carboxamide]

SMILES: O=C(O)CNC(=O)c1ccc(Cl)s1 [Compound M4]
activity of metabolite [2]: Neither metabolite is active

AUC(0-inf) ([1]; rat, male Sprague Dawley rats, oral gavage co-dose: rivaroxaban 5.45 mg/kg (data multiplied by 0.91) and Compound 101 5 mg/kg, plasma): 2930 ng·h/mL
Cmax ([1]; rat, male Sprague Dawley rats, oral gavage co-dose: rivaroxaban 5.45 mg/kg (data multiplied by 0.91) and Compound 101 5 mg/kg, plasma, read-out: Cmax): 842 ng/mL
SMILES: O=C(NC[C@H]1CN(c2ccc(N3CCOCC3=O)cc2)C(=O)O1)c1ccc(Cl)s1 [Rivaroxaban, 5-chloro-N-[2-oxo-3-[4-(3-oxomorpholin-4-yl)phenyl]oxazolidin-5(S)-ylmethyl]thiophene-2-carboxamide, reference compound]
adverse events [3]: ageusia (loss of taste), ecchymosis (bruising) and headache
